Results as given in the NIST ThermoML archive (doi:10.1021/je3010535).
Several values for one entry are separate records, joined by “and”; a condition that tells them apart may be missing. Identical values can stand only once. Numbers after ± are expanded uncertainties.

Assay: Henry's Law constant (molality scale); of the first substance listed, at infinite dilution; xn = mol fraction of the nth substance listed
Details: Liquid, Chromatography, x1 = 0

SMILES | Henry's Law constant (274.15 K) [kPa·kg/mol] | Henry's Law constant (294.65 K) | Henry's Law constant (296.15 K) [kPa·kg/mol] | Henry's Law constant (310.15 K) [kPa·kg/mol] | Henry's Law constant (320.15 K) [kPa·kg/mol] | Henry's Law constant (331.15 K) [kPa·kg/mol] | Henry's Law constant (333.15 K) [kPa·kg/mol] | Henry's Law constant (313.15 K) [kPa·kg/mol] | Henry's Law constant (326.15 K) [kPa·kg/mol] | Henry's Law constant (298.15 K) [kPa·kg/mol] | Henry's Law constant (311.15 K) [kPa·kg/mol] | Henry's Law constant (332.15 K) [kPa·kg/mol]
ClCC(Cl)CCl [1,2,3-trichloropropane] + O | 2.98 ± 0.89 | 23 kPa·kg/mol and 13.6 kPa·kg/mol | 28.3 ± 8.5 | 78.2 ± 23 | 113 ± 34 | 208 ± 62 | 370 ± 110 |  |  |  |  | 
CI [iodomethane] + O | 251 ± 75 |  |  |  |  |  |  | 814 ± 240 | 1560 ± 470 |  |  | 
Brc1ccccc1 [bromobenzene] + O | 56.1 ± 17 | 138 kPa·kg/mol and 147 kPa·kg/mol | 161 ± 48 | 273 ± 82 | 470 ± 140 | 708 ± 210 |  |  |  |  |  | 
FC(Cl)(Cl)Cl [trichlorofluoromethane] + O | 987 ± 300 |  |  |  |  |  |  | 8110 ± 2400 | 15600 ± 4700 |  |  | 
C=C(C)C(=O)OC [methyl methacrylate] + O | 2.57 ± 0.77 | 24.2 kPa·kg/mol and 12.7 kPa·kg/mol | 24.5 ± 7.4 | 85.1 ± 26 | 132 ± 40 | 250 ± 75 |  |  |  |  |  | 
C=C(C)C#N [isopropenylnitrile] + O | 2.92 ± 1.2 | 14.7 kPa·kg/mol and 16.8 kPa·kg/mol | 16.7 ± 6.7 | 50.9 ± 20 | 68.5 ± 27 | 147 ± 59 | 261 ± 100 |  |  |  |  | 
ClC(Cl)C(Cl)(Cl)Cl [pentachloroethane] + O | 43.4 ± 17 | 133 kPa·kg/mol and 141 kPa·kg/mol | 163 ± 65 | 268 ± 110 | 505 ± 200 | 989 ± 400 |  | 471 ± 190 | 1070 ± 430 |  |  | 
Cc1ccc(C(C)C)cc1 [1-(1-methylethyl)-4-methylbenzene] + O | 157 ± 63 | 389 kPa·kg/mol and 469 kPa·kg/mol | 502 ± 200 | 777 ± 310 |  | 1830 ± 730 |  | 2150 ± 860 | 3440 ± 1400 |  |  | 
COC(C)=O [methyl ethanoate] + O | 1.06 ± 0.42 | 5.33 kPa·kg/mol and 7.39 kPa·kg/mol | 7.53 ± 3 | 34.1 ± 14 | 52.4 ± 21 | 83.1 ± 33 | 125 ± 50 |  |  |  |  | 
CCCl [chloroethane] + O | 522 ± 160 |  |  |  |  |  |  | 1950 ± 580 | 2940 ± 880 |  |  | 
C1CCCCC1 [cyclohexane] + O | 1010 ± 300 | 2250 kPa·kg/mol | 2250 ± 670 |  |  |  |  | 9460 ± 2800 | 15700 ± 4700 |  |  | 
Cl/C=C/Cl [(E)-1,2-dichloroethene] + O | 311 ± 93 | 956 kPa·kg/mol and 852 kPa·kg/mol | 995 ± 300 |  |  |  |  | 1820 ± 540 | 2900 ± 870 |  |  | 
CCCCOCCO [2-butoxyethan-1-ol] + O |  |  |  |  |  |  |  |  |  | 0.269 ± 0.081 | 0.904 ± 0.27 | 4.27 ± 1.3
Cc1cc(C)cc(C)c1 [1,3,5-trimethylbenzene] + O | 115 ± 46 | 304 kPa·kg/mol and 352 kPa·kg/mol | 408 ± 160 | 719 ± 290 |  | 1830 ± 730 |  | 1330 ± 530 | 2360 ± 940 |  |  | 
ClCBr [bromochloromethane] + O | 50.8 ± 15 | 121 kPa·kg/mol and 123 kPa·kg/mol | 126 ± 38 | 259 ± 78 | 479 ± 140 | 795 ± 240 |  |  |  |  |  | 
CC(=O)c1ccccc1 [acetophenone] + O | 0.128 ± 0.039 | 0.881 kPa·kg/mol and 0.738 kPa·kg/mol | 1.6 ± 0.48 | 2.48 ± 0.75 | 4.6 ± 1.4 | 8.87 ± 2.7 |  |  |  |  |  | 
ClC/C=C\CCl [cis-1,4-dichloro-2-butene] + O | 3.03 |  | 31.9 | 102 | 182 | 492 |  |  | 1380 |  |  | 
CC(=O)CC(C)C [4-methylpentan-2-one] + O | 0.834 ± 0.25 | 8.08 kPa·kg/mol and 8.27 kPa·kg/mol | 9.34 ± 2.8 | 37.2 ± 11 | 72.5 ± 22 | 164 ± 49 | 236 ± 71 |  |  |  |  | 
ClC/C=C/CCl [trans-1,4-dichloro-2-butene] + O | 3.9 ± 1.6 | 28.2 kPa·kg/mol and 17.7 kPa·kg/mol | 31.6 ± 13 | 96.4 ± 39 | 175 ± 70 | 155 ± 62 |  |  |  |  |  | 
ClC(Cl)C(Cl)Cl [1,1,2,2-tetrachloroethane] + O | 3.6 ± 1.1 | 31.2 kPa·kg/mol and 17.9 kPa·kg/mol | 34.4 ± 10 | 99 ± 30 | 156 ± 47 | 262 ± 79 |  |  |  |  |  | 
